Laboratory results: ChEMBL document CHEMBL1201862, “PubChem BioAssay data set” (2004)
Calls of active or inactive are those of the source.

Columns and labels:
[1] = target: Aryl hydrocarbon receptor (Homo sapiens, UniProt P35869); assay: Luminescence-based cell-based high throughput dose response assay for activators of the Aryl Hydrocarbon Receptor (AHR). [Related pubchem assays: 2796 (Primary screen (AHR activators in singlicate)), 2845 (Confirmation screen (AHR activators in triplicate)), 434939 (Counterscreen (PXR activators in triplicate)), 2804 (Summary (AHR activators))]; assay type: ADME
Sequence of Aryl hydrocarbon receptor (P35869 whole entry): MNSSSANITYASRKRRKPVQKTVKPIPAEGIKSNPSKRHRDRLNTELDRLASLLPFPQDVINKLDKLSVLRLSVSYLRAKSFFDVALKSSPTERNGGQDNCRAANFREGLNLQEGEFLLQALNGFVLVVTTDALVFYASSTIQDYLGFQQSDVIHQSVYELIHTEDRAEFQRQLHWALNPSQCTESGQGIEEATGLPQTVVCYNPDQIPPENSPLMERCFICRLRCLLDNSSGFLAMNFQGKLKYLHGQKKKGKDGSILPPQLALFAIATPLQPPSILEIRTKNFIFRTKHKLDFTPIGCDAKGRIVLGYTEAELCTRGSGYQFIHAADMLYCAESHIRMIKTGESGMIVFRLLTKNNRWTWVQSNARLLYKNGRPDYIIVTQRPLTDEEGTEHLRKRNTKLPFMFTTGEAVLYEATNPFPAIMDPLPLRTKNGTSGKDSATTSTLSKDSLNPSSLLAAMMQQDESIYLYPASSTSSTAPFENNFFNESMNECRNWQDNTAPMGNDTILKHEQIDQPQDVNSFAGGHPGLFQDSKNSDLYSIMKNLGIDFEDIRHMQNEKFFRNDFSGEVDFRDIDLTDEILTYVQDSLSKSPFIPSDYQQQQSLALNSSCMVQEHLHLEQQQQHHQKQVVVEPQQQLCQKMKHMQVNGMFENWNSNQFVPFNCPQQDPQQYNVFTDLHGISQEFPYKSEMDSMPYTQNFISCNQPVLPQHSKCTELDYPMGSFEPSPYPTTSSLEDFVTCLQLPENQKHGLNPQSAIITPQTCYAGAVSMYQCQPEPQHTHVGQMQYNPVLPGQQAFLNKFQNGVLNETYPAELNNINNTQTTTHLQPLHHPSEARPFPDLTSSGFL

[2] = M. tuberculosis growth inhibition, HTS (AID 449762); assay type: functional
[3] = target: T1, Mannose-6-phosphate isomerase (Homo sapiens, UniProt P34949); assay: MPI inhibition at elevated mannose 6-phosphate – biochemical, fluorescence intensity, high mannose 6-phosphate, primary screen (AID 1220)
T1 sequence (P34949 whole entry): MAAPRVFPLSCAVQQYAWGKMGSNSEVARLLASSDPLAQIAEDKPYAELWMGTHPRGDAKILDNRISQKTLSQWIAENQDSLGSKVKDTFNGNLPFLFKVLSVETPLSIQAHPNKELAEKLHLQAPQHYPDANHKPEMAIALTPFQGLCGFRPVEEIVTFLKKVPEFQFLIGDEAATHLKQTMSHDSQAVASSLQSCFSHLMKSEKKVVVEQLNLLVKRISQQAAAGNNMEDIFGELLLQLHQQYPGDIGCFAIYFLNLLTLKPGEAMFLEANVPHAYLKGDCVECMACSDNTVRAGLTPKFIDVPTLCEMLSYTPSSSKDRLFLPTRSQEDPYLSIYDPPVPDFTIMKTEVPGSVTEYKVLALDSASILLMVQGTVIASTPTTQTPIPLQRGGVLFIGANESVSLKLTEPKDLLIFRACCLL

[4] = target: Ubiquitin carboxyl-terminal hydrolase BAP1 (Homo sapiens, UniProt Q92560); assay: inhibition of BAP1 ubiquitin hydrolase activity – biochemical, dose response (AID 714); assay type: functional
[5] = reduced cellular PGC1a acetyl-lysine signal – cell-based, cherry-picked samples, dose response (AID 720514); assay type: functional;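 note: potency may reflect raised or lowered acetylation signal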
[6] = target: Mitogen-activated protein kinase 10 (Homo sapiens, UniProt P53779); assay: Dose response biochemical screening assay for inhibitors of c-Jun N-Terminal Kinase 3 (JNK3). [Related pubchem assays: 746 ]
[7] = target: Glucose-6-phosphate 1-dehydrogenase (Homo sapiens, UniProt P11413); assay: inhibition of Homo sapiens G6PD, dose series – biochemical, fluorescence, selectivity assay for P. falciparum G6PD inhibitor project, dose response (AID 504792); assay type: functional
Sequence of Glucose-6-phosphate 1-dehydrogenase (P11413 whole entry): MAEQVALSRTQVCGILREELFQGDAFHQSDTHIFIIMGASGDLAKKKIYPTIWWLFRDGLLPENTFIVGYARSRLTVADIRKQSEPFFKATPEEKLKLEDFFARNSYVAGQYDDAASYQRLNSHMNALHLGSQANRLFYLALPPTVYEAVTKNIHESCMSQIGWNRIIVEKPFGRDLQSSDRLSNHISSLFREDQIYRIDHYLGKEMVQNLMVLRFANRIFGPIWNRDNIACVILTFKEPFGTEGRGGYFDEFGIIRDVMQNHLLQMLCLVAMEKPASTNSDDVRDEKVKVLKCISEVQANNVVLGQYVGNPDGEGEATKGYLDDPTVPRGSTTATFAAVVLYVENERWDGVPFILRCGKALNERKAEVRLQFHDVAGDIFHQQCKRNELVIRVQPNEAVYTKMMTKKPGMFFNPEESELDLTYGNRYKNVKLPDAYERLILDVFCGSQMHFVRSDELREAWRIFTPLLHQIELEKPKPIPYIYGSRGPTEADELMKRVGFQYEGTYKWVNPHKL

Vero = assay: viability of Vero cells under compound – cytotoxicity control for flavivirus capping enzyme inhibitors (AID 588742); assay type: functional; settings: Chlorocebus sabaeus
[8] = viability loss of HPDE-C7K cells – cell-based, fluorescence, HTS, primary screen (AID 431); assay type: functional; settings: Homo sapiens
[9] = HPDE-C7 pancreatic duct cell viability loss – fluorescence, HTS (AID 430); assay type: functional, cell-based; settings: Homo sapiens
Genome polyprotein = Genome polyprotein (dengue virus type 2, UniProt P29990); assay: flavivirus cap methylation enzyme inhibition – biochemical, confirmation dose response, primary screen (AID 588689); assay type: functional
Sequence of Genome polyprotein (P29990 2492-3391 limits assumed): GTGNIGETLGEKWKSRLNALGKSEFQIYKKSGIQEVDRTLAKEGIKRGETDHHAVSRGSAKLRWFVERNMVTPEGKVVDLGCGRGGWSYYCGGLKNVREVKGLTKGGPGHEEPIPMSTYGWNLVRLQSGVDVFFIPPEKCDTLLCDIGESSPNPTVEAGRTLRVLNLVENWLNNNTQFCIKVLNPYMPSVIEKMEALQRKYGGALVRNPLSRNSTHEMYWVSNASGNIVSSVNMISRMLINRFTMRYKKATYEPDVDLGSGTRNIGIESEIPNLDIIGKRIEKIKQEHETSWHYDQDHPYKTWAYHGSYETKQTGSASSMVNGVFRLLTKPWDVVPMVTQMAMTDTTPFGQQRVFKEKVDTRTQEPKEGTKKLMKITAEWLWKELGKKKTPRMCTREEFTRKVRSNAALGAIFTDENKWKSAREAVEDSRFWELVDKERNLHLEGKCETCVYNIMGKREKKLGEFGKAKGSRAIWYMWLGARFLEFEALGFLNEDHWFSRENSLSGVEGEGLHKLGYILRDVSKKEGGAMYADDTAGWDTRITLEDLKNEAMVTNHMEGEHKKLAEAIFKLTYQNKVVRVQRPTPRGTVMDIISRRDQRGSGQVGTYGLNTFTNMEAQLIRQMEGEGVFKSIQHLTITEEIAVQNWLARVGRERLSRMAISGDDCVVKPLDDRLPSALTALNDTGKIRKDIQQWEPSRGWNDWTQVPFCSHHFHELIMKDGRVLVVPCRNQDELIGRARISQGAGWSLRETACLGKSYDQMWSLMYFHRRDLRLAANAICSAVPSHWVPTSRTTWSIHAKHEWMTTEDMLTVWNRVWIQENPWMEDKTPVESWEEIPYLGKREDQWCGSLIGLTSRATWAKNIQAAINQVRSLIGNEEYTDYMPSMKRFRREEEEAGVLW

[10] = target: T2, Sphingosine 1-phosphate receptor 2 (Homo sapiens, UniProt O95136); assay: Dose Response Cell Based Assay for Antagonists of the S1P2 Receptor. [Related pubchem assays: 856, 736 ]; assay type: functional
T2 sequence (O95136 whole entry): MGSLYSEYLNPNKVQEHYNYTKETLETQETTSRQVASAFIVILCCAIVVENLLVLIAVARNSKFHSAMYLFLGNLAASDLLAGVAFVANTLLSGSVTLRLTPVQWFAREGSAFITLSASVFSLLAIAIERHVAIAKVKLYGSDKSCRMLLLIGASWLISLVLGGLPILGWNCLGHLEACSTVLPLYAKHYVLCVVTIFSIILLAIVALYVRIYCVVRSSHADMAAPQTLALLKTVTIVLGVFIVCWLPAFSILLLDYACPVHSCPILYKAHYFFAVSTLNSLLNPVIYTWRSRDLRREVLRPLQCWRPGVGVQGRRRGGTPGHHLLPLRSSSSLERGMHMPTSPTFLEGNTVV

Cytochrome P450 3A4 = Cytochrome P450 3A4 (Homo sapiens, UniProt P08684); settings: Potency;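 note: confirmatory qHTS run detecting inhibitors and substrates of CYP3A4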
Cytochrome P450 2C19 = Cytochrome P450 2C19 (Homo sapiens, UniProt P33261); assay: qHTS Assay for Inhibitors and Substrates of Cytochrome P450 2C19. [Related pubchem assays: 410 ]; assay type: ADME; settings: read-out: Potency
Ephrin type-A receptor 4 = Ephrin type-A receptor 4 (Mus musculus, UniProt Q03137); assay: EphA4 ligand-binding antagonists – biochemical, colorimetric, mouse EphA4, primary screen (AID 689); assay type: functional
[11] = target: Glyceraldehyde-3-phosphate dehydrogenase (Homo sapiens, UniProt P04406)
Bcl-2-related protein A1 [12] = target: T3, Bcl-2-related protein A1 (Mus musculus, UniProt Q07440); assay: small-molecule antagonists of Bfl-1/BH3 interaction – biochemical, TR-FRET, mouse Bfl-1, confirmation (AID 621);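 note: TR-FRET binding of GST-Bfl-1 to FITC-labelled Bid peptide via terbium antibody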
T3 sequence (Q07440 whole entry): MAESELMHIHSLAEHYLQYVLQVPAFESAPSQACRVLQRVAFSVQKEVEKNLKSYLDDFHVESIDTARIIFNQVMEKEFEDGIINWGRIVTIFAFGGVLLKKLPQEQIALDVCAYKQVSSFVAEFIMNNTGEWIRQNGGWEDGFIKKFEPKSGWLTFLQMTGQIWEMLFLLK

Bcl-2-related protein A1 [13] = target: T3, Bcl-2-related protein A1; assay: Bfl-1 binding inhibitors, SAR follow-up, biochemical, fluorescence polarization (AID 1070)
[14] = target: T4, RNA-binding protein pos-1 (Caenorhabditis elegans, UniProt G5EF15); assay: disruptors of C. elegans POS-1 RNA interaction – biochemical, fluorescence polarization, dose response (AID 1964);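 note: purified POS-1 fused to maltose binding protein made in E. coli; potency of compounds blocking POS-1 binding to fluorescent RNA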
T4 sequence (G5EF15 whole entry): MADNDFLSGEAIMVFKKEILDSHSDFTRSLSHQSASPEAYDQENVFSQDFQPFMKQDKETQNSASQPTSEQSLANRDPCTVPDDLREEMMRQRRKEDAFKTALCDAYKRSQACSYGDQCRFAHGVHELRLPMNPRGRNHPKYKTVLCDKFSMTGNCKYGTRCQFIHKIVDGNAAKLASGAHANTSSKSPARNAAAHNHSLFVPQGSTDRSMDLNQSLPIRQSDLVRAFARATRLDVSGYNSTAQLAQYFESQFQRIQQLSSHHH

[15] = target: Arf-GAP with SH3 domain, ANK repeat and PH domain-containing protein 1 (Homo sapiens, UniProt Q9ULH1); assay type: functional;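 note: biochemical fluorescence polarization dose–response screen measuring inhibition of ASAP1; ASAP1 GAP domain stimulating GTP hydrolysis by truncated human ARF1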
Sequence of Arf-GAP with SH3 domain, ANK repeat and PH domain-containing protein 1 (Q9ULH1 whole entry, the tested form may be a part): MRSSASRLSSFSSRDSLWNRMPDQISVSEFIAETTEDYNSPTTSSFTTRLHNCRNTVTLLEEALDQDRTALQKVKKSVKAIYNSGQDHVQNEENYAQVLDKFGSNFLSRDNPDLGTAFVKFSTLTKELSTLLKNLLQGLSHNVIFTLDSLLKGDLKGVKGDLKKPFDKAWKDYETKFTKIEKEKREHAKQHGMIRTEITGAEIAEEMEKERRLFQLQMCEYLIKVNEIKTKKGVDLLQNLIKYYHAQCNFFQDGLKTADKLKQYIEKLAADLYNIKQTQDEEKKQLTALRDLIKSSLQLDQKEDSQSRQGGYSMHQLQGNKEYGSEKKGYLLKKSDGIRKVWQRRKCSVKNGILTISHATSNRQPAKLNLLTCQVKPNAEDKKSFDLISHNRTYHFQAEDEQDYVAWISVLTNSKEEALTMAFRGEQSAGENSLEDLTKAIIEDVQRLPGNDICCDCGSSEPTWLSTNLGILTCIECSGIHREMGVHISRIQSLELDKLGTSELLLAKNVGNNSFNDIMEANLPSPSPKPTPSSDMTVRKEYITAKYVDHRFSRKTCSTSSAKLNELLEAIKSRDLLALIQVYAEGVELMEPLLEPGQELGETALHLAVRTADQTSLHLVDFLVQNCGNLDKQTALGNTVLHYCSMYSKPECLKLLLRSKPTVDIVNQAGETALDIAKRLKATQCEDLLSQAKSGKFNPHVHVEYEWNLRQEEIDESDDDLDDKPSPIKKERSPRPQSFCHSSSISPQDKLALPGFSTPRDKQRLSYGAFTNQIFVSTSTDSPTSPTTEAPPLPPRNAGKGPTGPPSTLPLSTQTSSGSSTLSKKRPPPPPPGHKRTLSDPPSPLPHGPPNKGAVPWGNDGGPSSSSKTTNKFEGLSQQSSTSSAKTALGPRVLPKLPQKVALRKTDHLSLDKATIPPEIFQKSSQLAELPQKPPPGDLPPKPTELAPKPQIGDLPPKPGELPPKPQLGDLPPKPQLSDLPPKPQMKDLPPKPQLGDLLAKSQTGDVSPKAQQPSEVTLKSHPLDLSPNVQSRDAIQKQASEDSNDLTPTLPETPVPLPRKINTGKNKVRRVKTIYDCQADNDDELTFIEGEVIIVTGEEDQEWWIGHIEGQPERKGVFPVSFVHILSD

[16] = target: Protein-tyrosine kinase 2-beta (Homo sapiens, UniProt Q14289);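 note: potency of inhibitors of PYK2 kinase phosphorylation of poly-GT substrate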
Sequence of Protein-tyrosine kinase 2-beta (Q14289 whole entry, the tested form may be a part): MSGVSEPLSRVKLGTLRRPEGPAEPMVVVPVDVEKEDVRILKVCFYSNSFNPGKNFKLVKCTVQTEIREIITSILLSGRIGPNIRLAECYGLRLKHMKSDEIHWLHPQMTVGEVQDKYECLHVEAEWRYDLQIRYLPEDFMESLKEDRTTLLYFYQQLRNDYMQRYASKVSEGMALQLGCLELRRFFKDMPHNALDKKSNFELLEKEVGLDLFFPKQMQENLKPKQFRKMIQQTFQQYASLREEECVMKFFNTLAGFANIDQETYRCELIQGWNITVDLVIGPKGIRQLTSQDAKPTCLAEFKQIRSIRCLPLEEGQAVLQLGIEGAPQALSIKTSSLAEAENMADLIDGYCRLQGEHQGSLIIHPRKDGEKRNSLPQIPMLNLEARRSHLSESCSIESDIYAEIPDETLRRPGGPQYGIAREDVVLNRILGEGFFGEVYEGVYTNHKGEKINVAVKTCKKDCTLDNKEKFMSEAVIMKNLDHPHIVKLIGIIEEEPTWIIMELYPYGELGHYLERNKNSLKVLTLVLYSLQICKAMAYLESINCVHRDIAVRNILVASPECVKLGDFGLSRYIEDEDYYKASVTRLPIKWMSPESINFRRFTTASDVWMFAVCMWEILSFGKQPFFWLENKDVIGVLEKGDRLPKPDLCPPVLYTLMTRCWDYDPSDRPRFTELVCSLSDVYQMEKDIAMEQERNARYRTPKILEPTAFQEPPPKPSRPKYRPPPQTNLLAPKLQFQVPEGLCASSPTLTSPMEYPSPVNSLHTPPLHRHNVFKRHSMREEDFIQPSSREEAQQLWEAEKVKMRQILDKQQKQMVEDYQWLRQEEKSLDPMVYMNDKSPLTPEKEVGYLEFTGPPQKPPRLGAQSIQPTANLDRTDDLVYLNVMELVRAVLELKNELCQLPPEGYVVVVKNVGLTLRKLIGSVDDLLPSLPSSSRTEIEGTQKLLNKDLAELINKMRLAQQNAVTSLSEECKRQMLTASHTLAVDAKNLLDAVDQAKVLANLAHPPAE

[17] = target: T5, Carboxy-terminal domain RNA polymerase II polypeptide A small phosphatase 1 (Homo sapiens, UniProt Q9GZU7); assay: CTDSP1 inhibitors, concentration-response, biochemical, absorbance readout, ultra-high-throughput screen actives (AID 540297); assay type: functional
T5 sequence (Q9GZU7 whole entry): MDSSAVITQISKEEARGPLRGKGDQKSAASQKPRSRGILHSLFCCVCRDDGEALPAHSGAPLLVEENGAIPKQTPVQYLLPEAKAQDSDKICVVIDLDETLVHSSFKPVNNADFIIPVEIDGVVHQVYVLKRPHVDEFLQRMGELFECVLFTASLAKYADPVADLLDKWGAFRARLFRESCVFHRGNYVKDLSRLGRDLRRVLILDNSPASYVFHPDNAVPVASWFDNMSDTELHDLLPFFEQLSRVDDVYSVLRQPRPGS

[18] = target: T6, Zinc finger protein mex-5 (Caenorhabditis elegans, UniProt Q9XUB2); assay: potency of MEX-5 RNA-binding blockers – biochemical, C. elegans, fluorescence polarization, dose response (AID 1960)
T6 sequence (Q9XUB2 whole entry): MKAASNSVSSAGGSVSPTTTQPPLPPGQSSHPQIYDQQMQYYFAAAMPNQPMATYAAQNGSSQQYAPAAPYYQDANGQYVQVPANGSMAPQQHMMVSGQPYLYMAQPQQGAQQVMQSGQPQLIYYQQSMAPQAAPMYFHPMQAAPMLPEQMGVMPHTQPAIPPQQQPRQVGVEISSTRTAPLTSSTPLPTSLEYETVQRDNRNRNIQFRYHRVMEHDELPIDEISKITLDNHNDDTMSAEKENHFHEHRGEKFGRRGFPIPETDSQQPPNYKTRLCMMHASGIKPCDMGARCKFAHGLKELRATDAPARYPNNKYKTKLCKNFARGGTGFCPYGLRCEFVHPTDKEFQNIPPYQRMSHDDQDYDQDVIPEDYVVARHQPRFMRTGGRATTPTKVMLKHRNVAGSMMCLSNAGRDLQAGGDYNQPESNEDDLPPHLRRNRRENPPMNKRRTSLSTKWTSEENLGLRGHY

[19] = Luminescence Cell-Based Dose Retest to Confirm Inhibitors of Cancer Stem Cells. [Related pubchem assays (depositor defined):AID2717, AID2721]; assay type: functional; settings: Homo sapiens
Streptokinase A = target: T7, Streptokinase A (Streptococcus pyogenes serotype M1, UniProt P10520); assay: viability-normalized secreted streptokinase activity reduction – plasminogen activation absorbance, OD405, dose response (AID 1914); assay type: functional, Streptococcus pyogenes M1 GAS;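 note: secreted streptokinase activity via plasminogen activation per viability signal from cell pellet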
T7 sequence (P10520 whole entry): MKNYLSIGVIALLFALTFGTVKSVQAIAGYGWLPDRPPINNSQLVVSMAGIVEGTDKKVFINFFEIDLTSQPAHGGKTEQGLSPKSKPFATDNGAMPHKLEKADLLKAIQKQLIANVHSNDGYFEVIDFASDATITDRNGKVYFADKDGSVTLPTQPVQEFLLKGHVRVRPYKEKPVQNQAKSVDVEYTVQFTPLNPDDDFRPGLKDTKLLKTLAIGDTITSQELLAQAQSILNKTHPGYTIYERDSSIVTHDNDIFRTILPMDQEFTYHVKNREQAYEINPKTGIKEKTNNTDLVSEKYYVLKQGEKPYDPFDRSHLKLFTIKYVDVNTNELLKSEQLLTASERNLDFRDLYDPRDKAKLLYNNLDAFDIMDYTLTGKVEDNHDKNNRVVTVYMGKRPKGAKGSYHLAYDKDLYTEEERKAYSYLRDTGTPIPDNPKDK

[20] = target: T2, Sphingosine 1-phosphate receptor 2; assay: Dose Response Cell Based Assay for Agonists of the S1P2 Receptor. [Related pubchem assays: 729, 736, 843 ]; assay type: functional
Streptococcus = assay: GAS UMAA2166 growth inhibition – luminescence, BacTiterGlo, counter-screen for streptokinase expression inhibitor project, dose response (AID 1915); assay type: functional, organism-based;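 note: potency for reduction of bacterial viability or growth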
[21] = test system: Streptococcus sp. 'group A'; assay: Streptococcus pyogenes SK(-)GAS viability under kanamycin – luminescence, BacTiterGlo, confirmation, counter-screen for streptokinase expression inhibitor project, dose response (AID 1900); assay type: functional, organism-based

In the case of `COc1ccc(NC(=O)c2ccc(C)cc2)c(OC)c1`, the EC50 [1] was 3.78 µM (active).

In the case of `CN(C(=O)COC(=O)/C=C/c1ccc(Cl)c(Cl)c1)c1c(N)n(Cc2ccccc2)c(=O)[nH]c1=O`, the IC50 [2] was > 100 µM (active).

For `COc1ccc(C(=O)CNc2ccc3ccccc3c2)cc1`, the IC50 [3] was > 50 µM (not active).

With `N#Cc1c(NC(=O)CCN2C(=O)c3ccccc3C2=O)oc(-c2ccccc2)c1-c1ccccc1` the IC50 [4] was > 50 µM (not active).

In the case of `CC(=O)Nc1cc(OC(C)=O)c2nonc2c1OC(C)=O`, the AC50 [5] was 4.89 µM (active), the IC50 [6] was 46.6 µM (not active) and the IC50 [7] was > 80 µM (inactive). For the same compound, the CC50 (Vero) was 12.6 µM (active), the EC50 [8] was 6.32 µM (active) and the EC50 [9] was 5.65 µM (active). The IC50 (Genome polyprotein) was 38 µM (active) and the IC50 [10] was 6.21 µM (active).

In the case of `C=C/C1=C/Cc2ccccc2C(C[N+](=O)[O-])C(C(=O)OC)(C(=O)OC)C1` (centres undefined), the AC50 (Cytochrome P450 3A4) was 3.16 µM (inconclusive) and the AC50 (Cytochrome P450 2C19) was 7.94 µM (inconclusive).

For `COc1ccc(C(=O)CN2CCOCC2)cc1F`, the IC50 (Ephrin type-A receptor 4) was > 100 µM (not active).

With `COC(=O)c1cc(C)nc(S(C)(=O)=O)n1` the IC50 [11] was > 100 µM (not active), the IC50 (Bcl-2-related protein A1 [12]) was > 100 µM (not active) and the IC50 (Bcl-2-related protein A1 [13]) was > 100 µM (not active).

For `O=C(N/N=C/C=C/c1ccc([N+](=O)[O-])cc1)c1cccs1`, the EC50 [14] was > 300 µM (not active), the IC50 [15] was 20.7 µM (inactive) and the IC50 [16] was 6.61 µM (active). The IC50 [17] was 4.28 µM (active) and the EC50 [18] was 53.6 µM (active).

With `Clc1ccc(-c2ccc(/C=N/Nc3cc(N4CCOCC4)nc(N4CCOCC4)n3)o2)cc1` the AC50 [19] was 1.73 µM (active), the EC50 (Streptokinase A) was > 150 µM (not active) and the EC50 [20] was 10.8 µM (not active). The EC50 (Streptococcus) was 17.1 µM (active), the CC50 (Vero) was 34.6 µM (active) and the EC50 [21] was 19.4 µM (active).
